Assay results taken from ChEMBL document CHEMBL3763077, “Discovery of pyrrolospirooxindole derivatives as novel cyclin dependent kinase 4 (CDK4) inhibitors by catalyst-free, green approach” (Eur J Med Chem, 2016).
The source made the active and inactive calls. The rule behind the calls is not given here.

Assays:
[1] = tested on: HeLa; assay: Cytotoxicity against human HeLa cells assessed as cell growth inhibition after 48 hrs by MTT assay; assay type: functional, cell-based
[2] = tested on: A549; assay: Cytotoxicity against human A549 cells assessed as cell growth inhibition after 48 hrs by MTT assay; assay type: functional, cell-based; conditions: A549, 48 h
[3] = Cytotoxicity against human DU145 cells assessed as cell growth inhibition after 48 hrs by MTT assay; assay type: functional, cell-based; conditions: DU-145, 48 h
[4] = tested on: HT-29; assay: Cytotoxicity against human HT-29 cells assessed as cell growth inhibition after 48 hrs by MTT assay; assay type: functional, cell-based; conditions: HT-29, 48 h
[5] = tested on: MDA-MB-231; assay: Cytotoxicity against human MDA-MB-231 cells assessed as cell growth inhibition after 48 hrs by MTT assay; assay type: functional, cell-based; conditions: MDA-MB-231, 48 h
[6] = Cell cycle arrest in human DU145 cells assessed as accumulation at sub G1 phase at 1 uM after 48 hrs by propidium iodide staining based flow cytometry (reference value: 8.20 %); assay type: functional; conditions: DU-145
[7] = Cell cycle arrest in human DU145 cells assessed as accumulation at G0/G1 phase at 1 uM after 48 hrs by propidium iodide staining based flow cytometry (reference value: 81.67 %); assay type: functional; conditions: DU-145
[8] = Cell cycle arrest in human DU145 cells assessed as accumulation at S phase at 1 uM after 48 hrs by propidium iodide staining based flow cytometry (reference value: 1.59 %); assay type: functional; conditions: DU-145
[9] = Cell cycle arrest in human DU145 cells assessed as accumulation at G2/M phase at 1 uM after 48 hrs by propidium iodide staining based flow cytometry (reference value: 5.96 %); assay type: functional; conditions: DU-145
[10] = Cell cycle arrest in human DU145 cells assessed as accumulation at sub G1 phase at 2 uM after 48 hrs by propidium iodide staining based flow cytometry (reference value: 8.20 %); assay type: functional; conditions: DU-145
[11] = Cell cycle arrest in human DU145 cells assessed as accumulation at G0/G1 phase at 2 uM after 48 hrs by propidium iodide staining based flow cytometry (reference value: 81.67 %); assay type: functional; conditions: DU-145
[12] = Cell cycle arrest in human DU145 cells assessed as accumulation at S phase at 2 uM after 48 hrs by propidium iodide staining based flow cytometry (reference value: 1.59 %); assay type: functional; conditions: DU-145
[13] = Cell cycle arrest in human DU145 cells assessed as accumulation at G2/M phase at 2 uM after 48 hrs by propidium iodide staining based flow cytometry (reference value: 5.96 %); assay type: functional; conditions: DU-145
[14] = tested on: DU-145; assay: Change in mitochondrial membrane potential in human DU145 cells at 1 uM after 48 hrs by JC-1 staining based flow cytometry (reference value: 95.6%); assay type: functional
[15] = tested on: DU-145; assay: Induction of apoptosis in human DU145 cells assessed as necrotic cells at 1 uM after 48 hrs by annexin V-FITC/PI staining based flow cytometry (reference value: 0.67 %); assay type: functional
[16] = tested on: DU-145; assay: Induction of apoptosis in human DU145 cells assessed as late apoptotic cells at 1 uM after 48 hrs by annexin V-FITC/PI staining based flow cytometry (reference value: 1.63 %); assay type: functional
[17] = tested on: DU-145; assay: Induction of apoptosis in human DU145 cells assessed as viable cells at 1 uM after 48 hrs by annexin V-FITC/PI staining based flow cytometry (reference value: 95.57 %); assay type: functional; conditions: DU-145, 48 h, read-out: Activity
[18] = tested on: DU-145; assay: Induction of apoptosis in human DU145 cells at assessed as early apoptotic cells 1 uM after 48 hrs by annexin V-FITC/PI staining based flow cytometry (reference value: 2.13 %); assay type: functional
[19] = tested on: DU-145; assay: Induction of apoptosis in human DU145 cells assessed as necrotic cells at 2 uM after 48 hrs by annexin V-FITC/PI staining based flow cytometry (reference value: 0.67 %); assay type: functional
[20] = tested on: DU-145; assay: Induction of apoptosis in human DU145 cells assessed as late apoptotic cells at 2 uM after 48 hrs by annexin V-FITC/PI staining based flow cytometry (reference value: 1.63 %); assay type: functional
[21] = tested on: DU-145; assay: Induction of apoptosis in human DU145 cells assessed as viable cells at 2 uM after 48 hrs by annexin V-FITC/PI staining based flow cytometry (reference value: 95.57 %); assay type: functional; conditions: DU-145, 48 h, read-out: Activity
[22] = tested on: DU-145; assay: Induction of apoptosis in human DU145 cells assessed as early apoptotic cells at 2 uM after 48 hrs by annexin V-FITC/PI staining based flow cytometry (reference value: 2.13 %); assay type: functional
[23] = Down regulation of CDK4 expression in human DU145 cells at 1 to 2 uM after 48 hrs by Western blot analysis; assay type: functional, cell-based; conditions: DU-145
[24] = Up regulation of Cip1/p21 expression in human DU145 cells at 1 to 2 uM after 48 hrs by Western blot analysis; assay type: functional, cell-based; conditions: DU-145
[25] = Up regulation of Kip1/p27 expression in human DU145 cells at 1 to 2 uM after 48 hrs by Western blot analysis; assay type: functional, cell-based; conditions: DU-145
[26] = tested on: DU-145; assay: Change in mitochondrial membrane potential in human DU145 cells at 2 uM after 48 hrs by JC-1 staining based flow cytometry (reference value: 95.6%); assay type: functional

O=C1N(Cc2ccc3c(c2)OCO3)c2ccc(Cl)cc2C12Nc1ccccc1-n1cccc12 (stereo not given)
IC50 [1]: 2.45 µM
IC50 [2]: 2.11 µM
IC50 [3]: 1.16 µM
IC50 [4]: 1.63 µM
IC50 [5]: 2.34 µM
Activity [6]: 6.98%
Activity [7]: 85.2%
Activity [8]: 1.21%
Activity [9]: 4.2%
Activity [10]: 29.1%
Activity [11]: 58.8%
Activity [12]: 2.94%
Activity [13]: 4.46%
Activity [14]: 87.7%
Activity [15]: 2%
Activity [16]: 15.42%
viability at 1 µM [17]: 60.6%
Activity [18]: 21.95%
Activity [19]: 1.63%
Activity [20]: 16.03%
viability at 2 µM [21]: 55%
Activity [22]: 27.36%
Activity [23]: Active
Activity [24]: Active
Activity [25]: Active
Activity [26]: 72.2%

O=C1Nc2ccc(Cl)cc2C12Nc1ccccc1-n1cccc12 (stereo not given)
IC50 [1]: 4.88 µM
IC50 [2]: 4.81 µM
IC50 [3]: 4.79 µM
IC50 [4]: 11 µM
IC50 [5]: 26.3 µM

O=C1Nc2ccc(Br)cc2C12Nc1ccccc1-n1cccc12 (stereo not given)
IC50 [1]: 16.4 µM
IC50 [2]: 4.9 µM
IC50 [3]: 3.98 µM
IC50 [4]: 17 µM
IC50 [5]: 29.7 µM

O=C1Nc2ccc([N+](=O)[O-])cc2C12Nc1ccccc1-n1cccc12 (stereo not given)
IC50 [1]: 12.9 µM
IC50 [2]: 16.1 µM
IC50 [3]: 22.7 µM
IC50 [4]: 15.6 µM
IC50 [5]: 17.4 µM

COc1ccc2c(c1)C1(Nc3ccccc3-n3cccc31)C(=O)N2 (stereo not given)
IC50 [1]: 14.8 µM
IC50 [2]: 13.8 µM
IC50 [3]: 11 µM
IC50 [4]: 14.7 µM
IC50 [5]: 15.7 µM

COc1cccc2c1C(=O)c1c(O)c3c(c(O)c1C2=O)C[C@@](O)(C(=O)CO)C[C@@H]3O[C@H]1C[C@H](N)[C@H](O)[C@H](C)O1 [DOXORUBICIN]
IC50 [2]: 1.06 µM
IC50 [3]: 1.82 µM
IC50 [4]: 1.16 µM
IC50 [5]: 1.67 µM

O=C1N(Cc2ccc3c(c2)OCO3)c2ccccc2C12Nc1ccccc1-n1cccc12 (stereo not given)
IC50 [1]: 4.53 µM
IC50 [2]: 7.59 µM
IC50 [3]: 3.98 µM
IC50 [4]: 15.1 µM
IC50 [5]: 30 µM

O=C1N(Cc2ccccc2)c2ccccc2C12Nc1ccccc1-n1cccc12 (stereo not given)
IC50 [1]: 20 µM
IC50 [2]: 17 µM
IC50 [3]: 13.2 µM
IC50 [4]: 17.4 µM
IC50 [5]: 26.2 µM

Cc1ccc2c(c1)C1(Nc3ccccc3-n3cccc31)C(=O)N2 (stereo not given)
IC50 [1]: 11.2 µM
IC50 [2]: 13.5 µM
IC50 [3]: 12.5 µM
IC50 [4]: 14.5 µM
IC50 [5]: 22.1 µM

O=C1N(Cc2ccccc2)c2ccc(Cl)cc2C12Nc1ccccc1-n1cccc12 (stereo not given)
IC50 [1]: 4.86 µM
IC50 [2]: 4.79 µM
IC50 [3]: 4.71 µM
IC50 [4]: 19 µM
IC50 [5]: 26.6 µM

O=C1N(Cc2ccccc2)c2ccc(Br)cc2C12Nc1ccccc1-n1cccc12 (stereo not given)
IC50 [1]: 21 µM
IC50 [2]: 16.6 µM
IC50 [3]: 11.2 µM
IC50 [4]: 18.1 µM
IC50 [5]: 23.7 µM

O=C1Nc2ccccc2C12Nc1ccccc1-n1cccc12 (stereo not given)
IC50 [1]: 4.57 µM
IC50 [2]: 7.1 µM
IC50 [3]: 6.03 µM
IC50 [4]: 4.11 µM
IC50 [5]: 8.84 µM

O=C1Nc2ccc(I)cc2C12Nc1ccccc1-n1cccc12 (stereo not given)
IC50 [1]: 16.7 µM
IC50 [2]: 22.4 µM
IC50 [3]: 15.7 µM
IC50 [4]: 19 µM
IC50 [5]: 27.1 µM

O=C1Nc2ccc(F)cc2C12Nc1ccccc1-n1cccc12 (stereo not given)
IC50 [1]: 15.1 µM
IC50 [2]: 23.4 µM
IC50 [3]: 12.7 µM
IC50 [4]: 15.8 µM
IC50 [5]: 31.4 µM

O=C1Nc2c(F)cccc2C12Nc1ccccc1-n1cccc12 (stereo not given)
IC50 [1]: 12.4 µM
IC50 [2]: 11.3 µM
IC50 [3]: 12.7 µM
IC50 [4]: 12.7 µM
IC50 [5]: 15.9 µM
